Marks after values point to notes of the source that are not given here.
Assays:
Format in all cases: in vivo
PTZ-induced convulsions = PTZ-induced convulsions in mice (PTZ 80 mg/kg i.p.)
Description: (§1) Male NIH Swiss mice (22-30 g) were kept in a vivarium under controlled environmental conditions (temperature, 22-26° C.; humidity, 40-50%) with an artificial 12-h light/dark cycle. Wood chips were used in all cages. Experiments were performed during the light phase of the light/dark cycle after a minimum 30-min period of acclimation to the experimental room. The animal facilities were fully accredited by the Association for Assessment and Accreditation of Laboratory Animal Care. All studies were performed under protocols approved by the Animal Care and Use Committee of the University of California, Davis in strict compliance with the Guide for the Care and Use of Laboratory Animals of the National Research Council (National Academy Press, Washington, D.C.).
(§2) Intratracheal administration of midazolam was carried out as described by Oka et al. (2006). In brief, mice were briefly anesthetized using isoflurane anesthesia (4% isoflurane). The animals were immediately placed on a surgical board held at a 60° angle. The animal's mouth was kept open by hanging the upper incisors on a hook to facilitate detection of the epiglottis. An operating light was used to illuminate the view of the pharynx after displacement of the tongue with a spatula. A syringe fitted with a blunted 24-gauge/25-mm was pushed against the soft palate to enter the trachea past the vocal cords. When the tracheal cartilage ring is felt, the needle is considered properly placed within the tracheal lumen. The needle was inserted almost to the bottom of the trachea. When the animals began to show signs that the anesthesia was waning, the liquid sample was gently injected at a dose volume of 0.25 ml/kg. After the injection of solution, air (1 ml syringe) was blown inside the lungs to uniformly distribute the drug in the lungs. Following the injection, the needle was gently removed and animal was held vertically for 2 min to facilitate the downward movement of liquid in the lungs. The animal was allowed 10 min to recover fully from the anesthesia as confirmed by normal spontaneous exploratory behavior. Seizure testing then commenced. For each of the seizure tests, we verified that there was no residual effect of the anesthetic on responsiveness.
PTZ was administered intraperitoneally at a dose of 80 mg/kg, which causes clonic convulsions in >97% of mice (Dhir et al., 2006). […] The time of onset of myoclonic jerks, clonus and tonic extension; and the incidence of lethality was recorded.
(§3) Results are expressed as mean±S.E.M.; the significance of the difference in the responses of treatment groups with respect to control is based on one-way analysis of variance (ANOVA) followed by specific post-hoc comparisons using Tukey's test. Differences were considered statistically significant when the probability of error was less than 0.05 (P<0.05). Control values in the threshold tests were the mean threshold values for vehicle-treated groups.

PTZ-induced seizures = test: PTZ seizure threshold test in mice (intravenous PTZ infusion), Example 1
Description: as §1, §2
The thresholds for various behavioral seizure stages induced by the GABA receptor antagonists PTZ and picrotoxin were determined by infusing the convulsant drugs via a 27 gauge-¾ inch “butterfly” needle inserted into the lateral tail vein. The needle was secured to the tail vein by a narrow piece of adhesive tape and the animal was permitted to move freely inside an inverted 2 litre glass beaker with free aeration from the top. PTZ (10 mg/ml) (Akula et al., 2008), and picrotoxin (1 mg/ml) (Chan et al., 2006) was infused at a constant rate of 0.5 ml/min using a Beckton Dickinson (1 ml) syringe mounted on an infusion pump (Model ‘11’ plus syringe pump; Harvard Apparatus, Holliston, Mass., USA). The syringe was connected to the needle by polyethylene tubing. The infusion was stopped at 3 min or at the onset of tonic extension, whichever occurred first. The thresholds to the following endpoints were determined: (i) the first myoclonic jerk; (ii) the onset of generalized clonus with loss of righting reflexes; and (iii) the onset of tonic extension. Latencies were measured from the start of convulsant infusion to the onset of all these three events. The threshold value (mg/kg) for each endpoint was determined according to the following formula: (infusion duration [sec]×infusion rate [ml/min]×convulsant drug concentration [mg/ml]×1000)/(60 [sec]×weight of mouse [g]).
as §3, with “Control values in the threshold tests were the mean threshold values for vehicle-treated groups.” left out

[1] = tested on: picrotoxin-induced seizure; test: Picrotoxin seizure threshold test in mice (intravenous infusion)
[2] = intraperitoneal 100 μg/kg, pretreatment 10 min
[3] = intraperitoneal 500 μg/kg, pretreatment 10 min
[4] = intraperitoneal 750 μg/kg, pretreatment 10 min
[5] = intraperitoneal 1000 μg/kg, pretreatment 10 min
[6] = intratracheal 12.5 μg/kg, pretreatment 10 min
[7] = intratracheal 25 μg/kg, pretreatment 7 min
[8] = intratracheal 25 μg/kg, pretreatment 10 min
[9] = intratracheal 50 μg/kg, pretreatment 7 min
[10] = intratracheal 50 μg/kg, pretreatment 10 min
[11] = intratracheal 100 μg/kg, pretreatment 7 min
[12] = intratracheal 100 μg/kg, pretreatment 10 min
[13] = intratracheal 200 μg/kg, pretreatment 10 min

For `Cc1ncc2n1-c1ccc(Cl)cc1C(c1ccccc1F)=NC2` [Midazolam, midazolam], the Mortality (PTZ-induced convulsions; [2]) was 66.67* percent, the Percent showing clonus (PTZ-induced convulsions; [2]) was 100% and the Percent showing extensor (PTZ-induced convulsions; [2]) was 66.67* percent. The “Percent showing myoclonic jerks” value (PTZ-induced convulsions; [2]) was 100%, the Mortality (PTZ-induced convulsions; [3]) was 0* percent and the Percent showing clonus (PTZ-induced convulsions; [3]) was 83.33%. For the same molecule, the Percent showing extensor (PTZ-induced convulsions; [3]) was 0* percent, the “Percent showing myoclonic jerks” value (PTZ-induced convulsions; [3]) was 100% and the Mortality (PTZ-induced convulsions; [4]) was 0* percent. The Percent showing clonus (PTZ-induced convulsions; [4]) was 33.33* percent, the Percent showing extensor (PTZ-induced convulsions; [4]) was 0* percent and the “Percent showing myoclonic jerks” value (PTZ-induced convulsions; [4]) was 83.33%. The Mortality (PTZ-induced convulsions; [5]) was 0* percent, the Percent showing clonus (PTZ-induced convulsions; [5]) was 0* percent and the Percent showing extensor (PTZ-induced convulsions; [5]) was 0* percent. For the same molecule, the “Percent showing myoclonic jerks” value (PTZ-induced convulsions; [5]) was 50* percent, the Mortality (PTZ-induced convulsions; [6]) was 83.33% and the Percent showing clonus (PTZ-induced convulsions; [6]) was 100%. The Percent showing extensor (PTZ-induced convulsions; [6]) was 83.33%, the “Percent showing myoclonic jerks” value (PTZ-induced convulsions; [6]) was 100% and the Mortality (PTZ-induced convulsions; [7]) was 0* percent. The Percent showing clonus (PTZ-induced convulsions; [7]) was 83.33%, the Percent showing extensor (PTZ-induced convulsions; [7]) was 0* percent and the “Percent showing myoclonic jerks” value (PTZ-induced convulsions; [7]) was 100%. The Mortality (PTZ-induced convulsions; [8]) was 50* percent, the Percent showing clonus (PTZ-induced convulsions; [8]) was 100% and the Percent showing extensor (PTZ-induced convulsions; [8]) was 50* percent. For the same molecule, the “Percent showing myoclonic jerks” value (PTZ-induced convulsions; [8]) was 100%, the Mortality (PTZ-induced convulsions; [9]) was 0* percent and the Percent showing clonus (PTZ-induced convulsions; [9]) was 50* percent. For the same molecule, the Percent showing extensor (PTZ-induced convulsions; [9]) was 0* percent, the “Percent showing myoclonic jerks” value (PTZ-induced convulsions; [9]) was 66.66* percent and the Mortality (PTZ-induced convulsions; [10]) was 16.66* percent. The Percent showing clonus (PTZ-induced convulsions; [10]) was 66.66* percent, the Percent showing extensor (PTZ-induced convulsions; [10]) was 16.66* percent and the “Percent showing myoclonic jerks” value (PTZ-induced convulsions; [10]) was 83.33%. For the same molecule, the Mortality (PTZ-induced convulsions; [11]) was 0* percent, the Percent showing clonus (PTZ-induced convulsions; [11]) was 0* percent and the Percent showing extensor (PTZ-induced convulsions; [11]) was 0* percent. For the same molecule, the “Percent showing myoclonic jerks” value (PTZ-induced convulsions; [11]) was 0* percent, the Mortality (PTZ-induced convulsions; [12]) was 0* percent and the Percent showing clonus (PTZ-induced convulsions; [12]) was 50* percent. The Percent showing extensor (PTZ-induced convulsions; [12]) was 0* percent, the “Percent showing myoclonic jerks” value (PTZ-induced convulsions; [12]) was 50* percent and the Mortality (PTZ-induced convulsions; [13]) was 0* percent. For the same molecule, the Percent showing clonus (PTZ-induced convulsions; [13]) was 0* percent, the Percent showing extensor (PTZ-induced convulsions; [13]) was 0* percent and the “Percent showing myoclonic jerks” value (PTZ-induced convulsions; [13]) was 0* percent. For the same molecule, the “anticonvulsant activity, PTZ i.v. seizure threshold model” value (PTZ-induced seizures; 25 μg/kg and 50 μg/kg intratracheally, 10 minutes before intravenous PTZ (FIG. 5)) was “active as anticonvulsant”, the “dose required for anticonvulsant activity, PTZ i.v. seizure threshold model” value (PTZ-induced seizures; administered intraperitoneally (FIG. 5)) was 500 µg/kg and the “dose required for anticonvulsant activity, PTZ i.v. seizure threshold model” value (PTZ-induced seizures; administered intravenously, 10 minutes before intravenous PTZ (FIG. 5)) was 100 to 200 µg/kg. The “thresholds for all seizure signs (myoclonic jerk, clonus, tonic extension) vs vehicle” value (PTZ-induced seizures; intraperitoneal 500, 1000, 2500 and 5000 μg/kg, pretreatment 15 min (FIG. 1A)) was “significant elevation”, the “thresholds for seizure signs vs vehicle” value (PTZ-induced seizures; [6]) was “enhanced the seizure threshold for clonic but ineffective against tonic extensor phases” and the “time of maximal effect” value (PTZ-induced seizures; intratracheal 100 μg/kg) was 5 to 15 min. The “time course: threshold vs vehicle pretreated animals” value (PTZ-induced seizures; intratracheal 100 μg/kg, pretreatment 5, 10, 20, 40 and 60 min (FIG. 2)) was “elevation in threshold”, the “thresholds for seizure signs vs vehicle” value (PTZ-induced seizures; intratracheal 25, 50 and 100 μg/kg, pretreatment 10 min (FIG. 1B)) was “effective” and the “seizure threshold, picrotoxin infusion” value [1, 2] was “effective in enhancing the seizure threshold for only clonic phase and ineffective against tonic extension”. The “thresholds for all seizure signs, picrotoxin infusion” value ([1]; intraperitoneal 250, 500 and 1000 μg/kg, pretreatment 10 min (FIG. 3A)) was “significant elevation” and the “seizure thresholds, picrotoxin infusion” value ([1]; intratracheal 25 and 50 μg/kg, pretreatment 10 min (FIG. 3B)) was “effective”.

From patent publication US20130309306A1, “INTRAPULMONARY BENZODIAZEPINE FOR THE TREATMENT AND PREVENTION OF SEIZURES” (priority 2010, published 2013)
